Measured values taken from publication PMC6407913, “DREADD Agonist 21 Is an Effective Agonist for Muscarinic-Based DREADDs in Vitro and in Vivo” (ACS Pharmacology & Translational Science, 2018).
Where “and” joins values, the source holds several entries; their conditions need not be identical. Equal values may be shown once.

What was measured:
Format in all cases: cell-based
[1] = molecular target: T1, 318 nonolfactory human GPCRs (Homo sapiens, UniProt O14626); settings: GPR171; C21 5 µM
T1 construct: expressed in transfected cells; host or cells: HTLA cells, transient
T1 sequence (O14626 whole entry): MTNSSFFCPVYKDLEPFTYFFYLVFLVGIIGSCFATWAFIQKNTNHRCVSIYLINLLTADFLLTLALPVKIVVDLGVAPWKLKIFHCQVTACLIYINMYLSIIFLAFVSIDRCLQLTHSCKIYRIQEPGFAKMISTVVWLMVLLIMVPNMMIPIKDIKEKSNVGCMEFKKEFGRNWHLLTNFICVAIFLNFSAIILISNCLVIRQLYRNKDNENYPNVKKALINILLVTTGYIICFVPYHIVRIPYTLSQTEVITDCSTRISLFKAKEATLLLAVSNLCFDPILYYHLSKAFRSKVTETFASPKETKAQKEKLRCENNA

[2] = molecular target: T2, 318 nonolfactory human GPCRs (Homo sapiens, UniProt O15552); settings: FFA2; C21 5 µM
T2 construct: expressed in transfected cells; host or cells: HTLA cells, transient

[3] = molecular target: T3, 318 nonolfactory human GPCRs (Homo sapiens, UniProt P04201); settings: MAS1; C21 5 µM
T3 construct: expressed in transfected cells; host or cells: HTLA cells, transient
T3 sequence (P04201 whole entry): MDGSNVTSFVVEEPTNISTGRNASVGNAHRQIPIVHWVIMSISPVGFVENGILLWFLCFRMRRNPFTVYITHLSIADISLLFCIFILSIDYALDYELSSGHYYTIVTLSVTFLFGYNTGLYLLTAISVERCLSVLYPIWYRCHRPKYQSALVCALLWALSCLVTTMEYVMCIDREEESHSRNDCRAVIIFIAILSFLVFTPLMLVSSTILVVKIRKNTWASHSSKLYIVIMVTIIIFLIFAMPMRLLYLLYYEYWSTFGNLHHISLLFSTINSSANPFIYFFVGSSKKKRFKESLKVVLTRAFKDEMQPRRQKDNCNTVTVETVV

[4] = molecular target: T4, 318 nonolfactory human GPCRs (Homo sapiens, UniProt P08908); settings: HTR1A; C21 5 µM
T4 construct: expressed in transfected cells; host or cells: HTLA cells, transient
T4 sequence (P08908 whole entry): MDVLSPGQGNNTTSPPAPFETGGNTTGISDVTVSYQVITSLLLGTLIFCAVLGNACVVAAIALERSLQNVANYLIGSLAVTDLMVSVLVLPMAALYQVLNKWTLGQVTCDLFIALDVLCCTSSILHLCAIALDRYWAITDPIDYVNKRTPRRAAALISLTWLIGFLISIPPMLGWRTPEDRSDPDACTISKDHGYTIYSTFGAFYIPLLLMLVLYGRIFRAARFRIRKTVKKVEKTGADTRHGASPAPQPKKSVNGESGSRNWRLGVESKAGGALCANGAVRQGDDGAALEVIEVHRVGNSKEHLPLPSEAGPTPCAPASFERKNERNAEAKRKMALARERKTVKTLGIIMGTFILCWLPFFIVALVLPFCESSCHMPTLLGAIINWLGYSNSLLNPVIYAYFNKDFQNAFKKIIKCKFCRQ

[5] = molecular target: T5, 318 nonolfactory human GPCRs (Homo sapiens, UniProt P25106); settings: CXCR7; C21 5 µM
T5 construct: expressed in transfected cells; host or cells: HTLA cells, transient
T5 sequence (P25106 whole entry): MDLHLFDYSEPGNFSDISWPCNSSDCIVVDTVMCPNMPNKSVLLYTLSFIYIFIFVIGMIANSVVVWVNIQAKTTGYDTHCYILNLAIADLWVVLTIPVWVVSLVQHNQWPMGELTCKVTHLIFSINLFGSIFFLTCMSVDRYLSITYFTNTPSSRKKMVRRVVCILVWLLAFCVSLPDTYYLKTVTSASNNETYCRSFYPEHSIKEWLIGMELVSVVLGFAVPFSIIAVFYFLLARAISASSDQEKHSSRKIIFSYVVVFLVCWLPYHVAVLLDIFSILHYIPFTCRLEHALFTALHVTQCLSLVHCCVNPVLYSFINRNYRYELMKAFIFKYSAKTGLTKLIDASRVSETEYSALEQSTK

[6] = molecular target: T6, 318 nonolfactory human GPCRs (Homo sapiens, UniProt P29371); settings: TACR3; C21 5 µM
T6 construct: expressed in transfected cells; host or cells: HTLA cells, transient
T6 sequence (P29371 whole entry): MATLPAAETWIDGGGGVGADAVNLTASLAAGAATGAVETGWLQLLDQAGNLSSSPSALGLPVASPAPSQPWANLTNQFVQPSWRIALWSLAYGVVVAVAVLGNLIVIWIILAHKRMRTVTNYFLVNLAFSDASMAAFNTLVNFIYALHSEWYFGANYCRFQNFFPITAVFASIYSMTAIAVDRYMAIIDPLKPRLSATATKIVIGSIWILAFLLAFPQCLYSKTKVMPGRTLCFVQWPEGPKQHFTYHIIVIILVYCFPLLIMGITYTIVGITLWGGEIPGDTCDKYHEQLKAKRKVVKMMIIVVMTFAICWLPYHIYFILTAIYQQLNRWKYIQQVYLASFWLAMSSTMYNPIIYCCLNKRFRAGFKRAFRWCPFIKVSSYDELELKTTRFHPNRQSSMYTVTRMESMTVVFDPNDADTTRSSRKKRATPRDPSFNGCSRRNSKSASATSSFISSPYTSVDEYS

[7] = molecular target: T7, 318 nonolfactory human GPCRs (Homo sapiens, UniProt P35410); settings: MAS1L; C21 5 µM
T7 construct: expressed in transfected cells; host or cells: HTLA cells, transient

[8] = molecular target: T8, 318 nonolfactory human GPCRs (Homo sapiens, UniProt P41594); settings: GRM5; C21 5 µM
T8 construct: expressed in transfected cells; host or cells: HTLA cells, transient

[9] = molecular target: T9, 318 nonolfactory human GPCRs (Homo sapiens, UniProt P43115); settings: PTGER3; C21 5 µM
T9 construct: expressed in transfected cells; host or cells: HTLA cells, transient

[10] = molecular target: T10, 318 nonolfactory human GPCRs (Homo sapiens, UniProt P47898); settings: HTR5; C21 5 µM
T10 construct: expressed in transfected cells; host or cells: HTLA cells, transient
T10 sequence (P47898 whole entry): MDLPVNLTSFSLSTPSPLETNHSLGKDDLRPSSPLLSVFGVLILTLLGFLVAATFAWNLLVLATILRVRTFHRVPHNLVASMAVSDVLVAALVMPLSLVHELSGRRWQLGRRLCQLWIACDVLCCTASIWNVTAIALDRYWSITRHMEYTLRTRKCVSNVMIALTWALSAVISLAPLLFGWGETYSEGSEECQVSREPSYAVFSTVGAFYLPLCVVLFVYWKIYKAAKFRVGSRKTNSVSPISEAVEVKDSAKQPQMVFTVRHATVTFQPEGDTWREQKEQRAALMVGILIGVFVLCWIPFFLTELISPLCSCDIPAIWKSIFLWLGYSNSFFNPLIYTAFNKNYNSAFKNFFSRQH

[11] = molecular target: T11, 318 nonolfactory human GPCRs (Homo sapiens, UniProt P49238); settings: CX3CR1; C21 5 µM
T11 construct: expressed in transfected cells; host or cells: HTLA cells, transient
T11 sequence (P49238 whole entry): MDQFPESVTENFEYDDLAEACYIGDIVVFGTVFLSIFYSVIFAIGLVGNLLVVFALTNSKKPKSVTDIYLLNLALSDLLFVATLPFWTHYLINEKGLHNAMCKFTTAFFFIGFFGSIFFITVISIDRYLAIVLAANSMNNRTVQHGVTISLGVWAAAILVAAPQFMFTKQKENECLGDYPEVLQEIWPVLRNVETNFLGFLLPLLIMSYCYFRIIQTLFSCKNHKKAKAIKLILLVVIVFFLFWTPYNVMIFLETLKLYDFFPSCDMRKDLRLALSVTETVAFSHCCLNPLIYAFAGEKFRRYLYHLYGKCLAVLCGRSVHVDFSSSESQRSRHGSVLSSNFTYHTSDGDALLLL

[12] = molecular target: T12, 318 nonolfactory human GPCRs (Homo sapiens, UniProt Q13585); settings: GPR50; C21 5 µM
T12 construct: expressed in transfected cells; host or cells: HTLA cells, transient
T12 sequence (Q13585 whole entry): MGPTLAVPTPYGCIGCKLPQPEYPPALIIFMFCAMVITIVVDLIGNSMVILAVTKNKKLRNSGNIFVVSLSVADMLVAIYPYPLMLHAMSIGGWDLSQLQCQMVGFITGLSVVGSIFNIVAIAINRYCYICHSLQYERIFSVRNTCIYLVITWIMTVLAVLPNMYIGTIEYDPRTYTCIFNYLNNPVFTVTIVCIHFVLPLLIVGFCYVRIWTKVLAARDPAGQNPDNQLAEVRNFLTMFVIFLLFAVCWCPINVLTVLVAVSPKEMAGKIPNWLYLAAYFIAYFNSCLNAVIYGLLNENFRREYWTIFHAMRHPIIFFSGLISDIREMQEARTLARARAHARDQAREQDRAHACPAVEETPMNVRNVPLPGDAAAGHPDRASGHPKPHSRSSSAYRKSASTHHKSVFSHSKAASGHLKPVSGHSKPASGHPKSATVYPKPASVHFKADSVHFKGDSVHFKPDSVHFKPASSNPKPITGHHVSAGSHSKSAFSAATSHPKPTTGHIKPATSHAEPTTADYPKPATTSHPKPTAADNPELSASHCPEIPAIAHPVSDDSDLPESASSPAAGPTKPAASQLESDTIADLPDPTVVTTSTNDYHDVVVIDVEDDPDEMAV

[13] = molecular target: T13, 318 nonolfactory human GPCRs (Homo sapiens, UniProt Q13639); settings: HTR4; C21 5 µM
T13 construct: expressed in transfected cells; host or cells: HTLA cells, transient

[14] = molecular target: T14, 318 nonolfactory human GPCRs (Homo sapiens, UniProt Q14330); settings: GPR18; C21 5 µM
T14 construct: expressed in transfected cells; host or cells: HTLA cells, transient
T14 sequence (Q14330 whole entry): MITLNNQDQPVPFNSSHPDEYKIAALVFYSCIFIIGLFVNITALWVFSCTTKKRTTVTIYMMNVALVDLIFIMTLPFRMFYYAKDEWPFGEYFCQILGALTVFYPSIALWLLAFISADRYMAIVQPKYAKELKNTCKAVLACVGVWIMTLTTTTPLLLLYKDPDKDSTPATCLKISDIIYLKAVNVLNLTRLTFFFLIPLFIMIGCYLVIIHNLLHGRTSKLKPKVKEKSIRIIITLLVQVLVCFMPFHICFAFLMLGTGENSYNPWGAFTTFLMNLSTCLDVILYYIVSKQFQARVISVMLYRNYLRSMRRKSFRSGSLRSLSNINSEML

[15] = molecular target: T15, 318 nonolfactory human GPCRs (Homo sapiens, UniProt Q15760); settings: GPR19; C21 5 µM
T15 construct: expressed in transfected cells; host or cells: HTLA cells, transient
T15 sequence (Q15760 whole entry): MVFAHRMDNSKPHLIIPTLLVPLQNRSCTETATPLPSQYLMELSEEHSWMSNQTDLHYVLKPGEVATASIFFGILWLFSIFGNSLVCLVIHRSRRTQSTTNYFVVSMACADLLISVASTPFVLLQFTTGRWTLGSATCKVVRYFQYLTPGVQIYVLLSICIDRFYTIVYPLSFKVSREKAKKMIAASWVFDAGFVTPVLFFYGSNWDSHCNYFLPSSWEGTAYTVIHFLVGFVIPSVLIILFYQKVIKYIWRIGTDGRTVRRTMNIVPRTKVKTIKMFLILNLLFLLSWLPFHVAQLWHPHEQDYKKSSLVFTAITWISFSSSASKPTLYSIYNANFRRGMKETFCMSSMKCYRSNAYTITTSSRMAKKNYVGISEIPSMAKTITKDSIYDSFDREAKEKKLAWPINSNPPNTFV

[16] = molecular target: T16, 318 nonolfactory human GPCRs (Homo sapiens, UniProt Q16538); settings: GPR162; C21 5 µM
T16 construct: expressed in transfected cells; host or cells: HTLA cells, transient

[17] = molecular target: T17, 318 nonolfactory human GPCRs (Homo sapiens, UniProt Q86SQ4); settings: GPR126; C21 5 µM
T17 construct: expressed in transfected cells; host or cells: HTLA cells, transient

[18] = molecular target: T18, 318 nonolfactory human GPCRs (Homo sapiens, UniProt Q86SQ6); settings: GPR123; C21 5 µM
T18 construct: expressed in transfected cells; host or cells: HTLA cells, transient

[19] = molecular target: T19, 318 nonolfactory human GPCRs (Homo sapiens, UniProt Q8NGU9); settings: GPR150; C21 5 µM
T19 construct: expressed in transfected cells; host or cells: HTLA cells, transient

[20] = molecular target: T20, 318 nonolfactory human GPCRs (Homo sapiens, UniProt Q8TDS7); settings: MRGPRD; C21 5 µM
T20 construct: expressed in transfected cells; host or cells: HTLA cells, transient
T20 sequence (Q8TDS7 whole entry): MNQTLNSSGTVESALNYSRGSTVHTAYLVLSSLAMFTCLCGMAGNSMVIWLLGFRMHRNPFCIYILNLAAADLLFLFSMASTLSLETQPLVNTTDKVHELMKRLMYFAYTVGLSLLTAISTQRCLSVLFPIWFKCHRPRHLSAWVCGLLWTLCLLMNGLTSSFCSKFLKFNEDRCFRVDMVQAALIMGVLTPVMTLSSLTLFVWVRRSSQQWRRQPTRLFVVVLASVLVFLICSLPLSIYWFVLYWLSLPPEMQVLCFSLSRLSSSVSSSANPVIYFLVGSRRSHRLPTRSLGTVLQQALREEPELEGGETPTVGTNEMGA

[21] = molecular target: T21, 318 nonolfactory human GPCRs (Homo sapiens, UniProt Q92633); settings: LPAR1; C21 5 µM
T21 construct: expressed in transfected cells; host or cells: HTLA cells, transient

[22] = molecular target: T22, 318 nonolfactory human GPCRs (Homo sapiens, UniProt Q92847); settings: GHSR; C21 5 µM
T22 construct: expressed in transfected cells; host or cells: HTLA cells, transient

[23] = molecular target: T23, 318 nonolfactory human GPCRs (Homo sapiens, UniProt Q99677); settings: LPA4; C21 5 µM
T23 construct: expressed in transfected cells; host or cells: HTLA cells, transient
T23 sequence (Q99677 whole entry): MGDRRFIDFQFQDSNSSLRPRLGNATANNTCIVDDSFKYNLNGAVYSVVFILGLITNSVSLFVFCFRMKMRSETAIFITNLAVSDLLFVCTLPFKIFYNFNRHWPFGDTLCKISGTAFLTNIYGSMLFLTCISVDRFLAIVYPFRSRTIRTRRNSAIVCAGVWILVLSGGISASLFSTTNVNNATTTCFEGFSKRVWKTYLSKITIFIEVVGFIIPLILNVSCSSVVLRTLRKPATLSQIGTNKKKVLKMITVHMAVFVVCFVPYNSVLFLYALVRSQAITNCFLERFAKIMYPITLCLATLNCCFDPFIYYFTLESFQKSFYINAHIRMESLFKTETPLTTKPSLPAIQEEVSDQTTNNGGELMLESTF

[24] = molecular target: T24, 318 nonolfactory human GPCRs (Homo sapiens, UniProt Q9GZN0); settings: GPR88; C21 5 µM
T24 construct: expressed in transfected cells; host or cells: HTLA cells, transient

[25] = molecular target: T25, 318 nonolfactory human GPCRs (Homo sapiens, UniProt Q9H1Y3); settings: OPN3; C21 5 µM
T25 construct: expressed in transfected cells; host or cells: HTLA cells, transient

[26] = molecular target: T26, 318 nonolfactory human GPCRs (Homo sapiens, UniProt Q9H3N8); settings: HRH4; C21 5 µM
T26 construct: expressed in transfected cells; host or cells: HTLA cells, transient

[27] = molecular target: T27, 318 nonolfactory human GPCRs (Homo sapiens, UniProt Q9HBW9); settings: ELTD1; C21 5 µM
T27 construct: expressed in transfected cells; host or cells: HTLA cells, transient

[28] = molecular target: T28, 318 nonolfactory human GPCRs (Homo sapiens, UniProt Q9HBX9); settings: RXFP1; C21 5 µM
T28 construct: expressed in transfected cells; host or cells: HTLA cells, transient

hM4 = molecular target: T29, hM4 (Homo sapiens, UniProt P08173); assay: pERK assay, antagonist mode (shift of ACh curve); settings: hM4, CHO cells
T29 construct: HA (hemagglutinin); expressed in transfected cells
T29 sequence (P08173 1-479): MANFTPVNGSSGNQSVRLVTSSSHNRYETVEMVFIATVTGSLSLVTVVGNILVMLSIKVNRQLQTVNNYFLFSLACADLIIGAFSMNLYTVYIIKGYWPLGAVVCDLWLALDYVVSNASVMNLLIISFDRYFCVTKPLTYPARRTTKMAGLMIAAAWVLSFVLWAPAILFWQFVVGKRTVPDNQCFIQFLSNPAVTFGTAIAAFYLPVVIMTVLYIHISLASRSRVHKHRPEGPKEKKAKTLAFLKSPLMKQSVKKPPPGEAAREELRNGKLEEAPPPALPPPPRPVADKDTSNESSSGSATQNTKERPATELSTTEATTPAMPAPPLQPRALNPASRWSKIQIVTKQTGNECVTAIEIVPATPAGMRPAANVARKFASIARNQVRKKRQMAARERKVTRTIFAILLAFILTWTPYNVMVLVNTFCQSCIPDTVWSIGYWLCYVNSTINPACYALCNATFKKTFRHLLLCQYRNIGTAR

c1ccc2c(c1)N=C(N1CCNCC1)c1ccccc1N2 [C21, 11-(1-piperazinyl)-5H-dibenzo[b,e][1,4]diazepine]
FOLD OVER BASAL [1]: 0.6 fold and 0.5 fold and 0.8 fold
FOLD OVER BASAL [2]: 0.9 fold and 0.8 fold and 0.6 fold
FOLD OVER BASAL [3]: 1.1 fold and 0.9 fold and 1 fold
FOLD OVER BASAL [4]: 0.5 fold and 0.4 fold and 0.3 fold
FOLD OVER BASAL [5]: 0.7 fold and 0.8 fold and 1.1 fold and 1.3 fold
FOLD OVER BASAL [6]: 1.2 fold and 0.8 fold and 0.6 fold and 0.7 fold
FOLD OVER BASAL [7]: 0.6 fold and 1 fold
FOLD OVER BASAL [8]: 1.1 fold and 0.7 fold
FOLD OVER BASAL [9]: 0.7 fold and 1 fold and 0.5 fold and 0.9 fold
FOLD OVER BASAL [10]: 0.9 fold and 1 fold and 0.8 fold
FOLD OVER BASAL [11]: 0.6 fold and 1.1 fold and 0.8 fold
FOLD OVER BASAL [12]: 0.6 fold and 0.7 fold and 0.5 fold and 0.9 fold
FOLD OVER BASAL [13]: 1.2 fold and 0.8 fold
FOLD OVER BASAL [14]: 0.8 fold and 1.1 fold and 0.7 fold
FOLD OVER BASAL [15]: 0.8 fold and 0.9 fold and 1.1 fold
FOLD OVER BASAL [16]: 0.6 fold and 0.7 fold and 0.9 fold
FOLD OVER BASAL [17]: 0.3 fold and 0.4 fold
FOLD OVER BASAL [18]: 1.2 fold and 0.7 fold and 1.1 fold and 0.9 fold
FOLD OVER BASAL [19]: 1.6 fold and 1.5 fold and 1.7 fold
FOLD OVER BASAL [20]: 0.7 fold and 0.9 fold and 0.6 fold
FOLD OVER BASAL [21]: 1 fold and 0.8 fold
FOLD OVER BASAL [22]: 0.9 fold and 1 fold
FOLD OVER BASAL [23]: 1.2 fold and 1.1 fold and 0.8 fold
FOLD OVER BASAL [24]: 1.1 fold and 1.9 fold and 1.5 fold
FOLD OVER BASAL [25]: 1.1 fold and 0.7 fold and 0.9 fold and 0.6 fold
FOLD OVER BASAL [26]: 6.3 fold and 4 fold and 5.7 fold and 3.8 fold
FOLD OVER BASAL [27]: 0.6 fold and 0.8 fold and 1 fold and 0.7 fold
FOLD OVER BASAL [28]: 0.4 fold and 0.6 fold
antagonist activity (shift of acetylcholine curve, pERK) (hM4): weak functional antagonism
